Reference: PubChem BioAssay AID1963448 (Molecular Pharmacology Branch, DTP, NCI, 2024)
Several values for one entry are separate records, joined by “and”; a condition that tells them apart may be missing. Equal values may be shown once.

System: 616215-338-R-J1-PDC complex spheroid growth, % test/control
Assay: Anticancer human tumor 616215-338-R-J1-PDC patient-derived colon adenocarcinoma cell line growth inhibition [Asc]
Settings: for viability, T/C: stronger effect = lower value
In short: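 Complex solid-tumor spheroids incorporating human endothelial and mesenchymal stem cells received single agents or combinations over half-log dilution ranges anchored to clinical Cmax.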
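Note: spheroids exposed to agents for seven days before readout.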
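Throughout, for viability, T/C: 100% = DMSO vehicle control viability.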

NC(=O)C(=Cn1cnc(-c2cc(C(F)(F)F)cc(C(F)(F)F)c2)n1)c1cncnc1 + CNC(C)C(=O)NC1CN(S(=O)(=O)c2cccc(S(=O)(=O)N3CCC4CCC(C(=O)NC(c5ccccc5)c5ccccc5)N4C(=O)C(NC(=O)C(C)NC)C3)c2)CCC2CCC(C(=O)NC(c3ccccc3)c3ccccc3)N2C1=O
IC50 (curve of first compound, second compound 0.00316 µM): > 300 nM
IC50 (curve of first compound, second compound 0.01 µM): > 300 nM
IC50 (curve of first compound, second compound 0.0316 µM): > 300 nM
IC50 (curve of first compound, second compound 0.1 µM): > 300 nM
IC50 (curve of first compound, second compound 0.316 µM): > 300 nM
IC50 (curve of first compound, second compound 1 µM): 191 nM
viability, T/C (second compound 0.00316 µM, first compound 0.000949 µM): 104%
viability, T/C (second compound 0.00316 µM, first compound 0.003 µM): 105%
viability, T/C (second compound 0.00316 µM, first compound 0.00949 µM): 94.3%
viability, T/C (second compound 0.00316 µM, first compound 0.03 µM): 83.3%
viability, T/C (second compound 0.00316 µM, first compound 0.0949 µM): 73.9%
viability, T/C (second compound 0.00316 µM, first compound 0.3 µM): 53.2%
viability, T/C (second compound 0.01 µM, first compound 0.000949 µM): 107%
viability, T/C (second compound 0.01 µM, first compound 0.003 µM): 108%
viability, T/C (second compound 0.01 µM, first compound 0.00949 µM): 96.2%
viability, T/C (second compound 0.01 µM, first compound 0.03 µM): 72%
viability, T/C (second compound 0.01 µM, first compound 0.0949 µM): 76.2%
viability, T/C (second compound 0.01 µM, first compound 0.3 µM): 71.4%
viability, T/C (second compound 0.0316 µM, first compound 0.000949 µM): 115%
viability, T/C (second compound 0.0316 µM, first compound 0.003 µM): 108%
viability, T/C (second compound 0.0316 µM, first compound 0.00949 µM): 95.8%
viability, T/C (second compound 0.0316 µM, first compound 0.03 µM): 64.6%
viability, T/C (second compound 0.0316 µM, first compound 0.0949 µM): 78.4%
viability, T/C (second compound 0.0316 µM, first compound 0.3 µM): 54.7%
viability, T/C (second compound 0.1 µM, first compound 0.000949 µM): 117%
viability, T/C (second compound 0.1 µM, first compound 0.003 µM): 110%
viability, T/C (second compound 0.1 µM, first compound 0.00949 µM): 102%
viability, T/C (second compound 0.1 µM, first compound 0.03 µM): 68.5%
viability, T/C (second compound 0.1 µM, first compound 0.0949 µM): 70.5%
viability, T/C (second compound 0.1 µM, first compound 0.3 µM): 68.5%
viability, T/C (second compound 0.316 µM, first compound 0.000949 µM): 118%
viability, T/C (second compound 0.316 µM, first compound 0.003 µM): 118%
viability, T/C (second compound 0.316 µM, first compound 0.00949 µM): 105%
viability, T/C (second compound 0.316 µM, first compound 0.03 µM): 61.1%
viability, T/C (second compound 0.316 µM, first compound 0.0949 µM): 60.9%
viability, T/C (second compound 0.316 µM, first compound 0.3 µM): 67%
viability, T/C (second compound 1 µM, first compound 0.000949 µM): 112%
viability, T/C (second compound 1 µM, first compound 0.003 µM): 110%
viability, T/C (second compound 1 µM, first compound 0.00949 µM): 71.1%
viability, T/C (second compound 1 µM, first compound 0.03 µM): 88.2%
viability, T/C (second compound 1 µM, first compound 0.0949 µM): 59%
viability, T/C (second compound 1 µM, first compound 0.3 µM): 41.5%

O=C(c1cc(Cc2n[nH]c(=O)c3ccccc23)ccc1F)N1CCN(C(=O)C2CC2)CC1
viability, T/C (compound 0.0316 µM): 97.1% and 97.4% and 112%
viability, T/C (compound 0.1 µM): 99.8% and 94.7% and 98.3%
viability, T/C (compound 0.316 µM): 97.7% and 99.4% and 100%
viability, T/C (compound 1 µM): 96.5% and 94.7% and 99.3%
viability, T/C (compound 3.16 µM): 96.8% and 106% and 90.6%
viability, T/C (compound 10 µM): 91.1% and 90.2% and 89.1%
IC50 (curve of compound): > 10000 nM
